Measurements taken from the NIST ThermoML archive (doi:10.1021/je500050p).
Numbers after ± are expanded uncertainties.

Test: activity coefficient (dimensionless); of the first substance listed, at infinite dilution; xn = mol fraction of the nth substance listed
Conditions: 101 kPa, Liquid, Chromatography, x1 = 0

SMILES | activity coefficient (323.15 K) | activity coefficient (333.15 K) | activity coefficient (343.15 K) | activity coefficient (353.15 K) | activity coefficient (373.15 K)
Cc1ccccc1C [1,2-dimethylbenzene] + CC1(C)[C@@H]2CC[C@@]1(CS(=O)(=O)[O-])C(=O)C2.CCCCCCCCCCCCCC[N+](CCCCCC)(CCCCCC)CCCCCC | 0.49 ± 0.04 | 0.77 ± 0.05 | 1.13 ± 0.07 | – | –
Cc1ccccc1C [1,2-dimethylbenzene] + CCCCCCCCCCCCCC[N+](CCCCCC)(CCCCCC)CCCCCC.C[C@H](O)C(=O)[O-] | 0.53 ± 0.04 | – | – | 0.55 ± 0.04 | 0.58 ± 0.04
Cc1cccc(C)c1 [1,3-dimethylbenzene] + CC1(C)[C@@H]2CC[C@@]1(CS(=O)(=O)[O-])C(=O)C2.CCCCCCCCCCCCCC[N+](CCCCCC)(CCCCCC)CCCCCC | 0.52 ± 0.04 | 0.81 ± 0.05 | 1.16 ± 0.07 | – | –
Cc1cccc(C)c1 [1,3-dimethylbenzene] + CCCCCCCCCCCCCC[N+](CCCCCC)(CCCCCC)CCCCCC.C[C@H](O)C(=O)[O-] | 0.57 ± 0.04 | – | – | 0.59 ± 0.04 | 0.6 ± 0.1
Cc1ccc(C)cc1 [1,4-dimethylbenzene] + CC1(C)[C@@H]2CC[C@@]1(CS(=O)(=O)[O-])C(=O)C2.CCCCCCCCCCCCCC[N+](CCCCCC)(CCCCCC)CCCCCC | 0.51 ± 0.04 | 0.8 ± 0.1 | 1.17 ± 0.07 | – | –
Cc1ccc(C)cc1 [1,4-dimethylbenzene] + CCCCCCCCCCCCCC[N+](CCCCCC)(CCCCCC)CCCCCC.C[C@H](O)C(=O)[O-] | 0.58 ± 0.04 | – | – | 0.58 ± 0.04 | 0.58 ± 0.04
C1COCCO1 [1,4-dioxane] + CC1(C)[C@@H]2CC[C@@]1(CS(=O)(=O)[O-])C(=O)C2.CCCCCCCCCCCCCC[N+](CCCCCC)(CCCCCC)CCCCCC | 0.52 ± 0.04 | 0.74 ± 0.05 | 1 | – | –
C#CCCCCC [1-heptyne] + CC1(C)[C@@H]2CC[C@@]1(CS(=O)(=O)[O-])C(=O)C2.CCCCCCCCCCCCCC[N+](CCCCCC)(CCCCCC)CCCCCC | 0.49 ± 0.04 | 0.78 ± 0.05 | 1.17 ± 0.07 | – | –
C#CCCCC [1-hexyne] + CC1(C)[C@@H]2CC[C@@]1(CS(=O)(=O)[O-])C(=O)C2.CCCCCCCCCCCCCC[N+](CCCCCC)(CCCCCC)CCCCCC | 0.46 ± 0.04 | 0.69 ± 0.05 | 0.95 ± 0.06 | – | –
CCC[N+](=O)[O-] [1-nitropropane] + CC1(C)[C@@H]2CC[C@@]1(CS(=O)(=O)[O-])C(=O)C2.CCCCCCCCCCCCCC[N+](CCCCCC)(CCCCCC)CCCCCC | 0.35 ± 0.03 | 0.55 ± 0.04 | 0.82 ± 0.05 | – | –
CCC[N+](=O)[O-] [1-nitropropane] + CCCCCCCCCCCCCC[N+](CCCCCC)(CCCCCC)CCCCCC.C[C@H](O)C(=O)[O-] | 0.33 ± 0.03 | – | – | 0.34 ± 0.03 | 0.36 ± 0.03
CC(C)CC(C)(C)C [2,2,4-trimethylpentane] + CCCCCCCCCCCCCC[N+](CCCCCC)(CCCCCC)CCCCCC.C[C@H](O)C(=O)[O-] | 1.33 ± 0.09 | – | – | 1.27 ± 0.08 | 1.25 ± 0.08
CC(C)CO [2-methyl-1-propanol] + CC1(C)[C@@H]2CC[C@@]1(CS(=O)(=O)[O-])C(=O)C2.CCCCCCCCCCCCCC[N+](CCCCCC)(CCCCCC)CCCCCC | 0.08 ± 0.03 | 0.15 ± 0.03 | 0.24 ± 0.03 | – | –
CC#N [acetonitrile] + CC1(C)[C@@H]2CC[C@@]1(CS(=O)(=O)[O-])C(=O)C2.CCCCCCCCCCCCCC[N+](CCCCCC)(CCCCCC)CCCCCC | 0.46 ± 0.04 | 0.66 ± 0.05 | 0.89 ± 0.06 | – | –
CC#N [acetonitrile] + CCCCCCCCCCCCCC[N+](CCCCCC)(CCCCCC)CCCCCC.C[C@H](O)C(=O)[O-] | 0.45 ± 0.04 | – | – | 0.44 ± 0.04 | 0.43 ± 0.04
c1ccccc1 [benzene] + CC1(C)[C@@H]2CC[C@@]1(CS(=O)(=O)[O-])C(=O)C2.CCCCCCCCCCCCCC[N+](CCCCCC)(CCCCCC)CCCCCC | 0.36 ± 0.03 | 0.51 ± 0.04 | 0.69 ± 0.05 | – | –
